Laboratory results: US20240109917A1 (ACTELION PHARMACEUTICALS LTD, priority 2020, published 2024)

Target: VEGFR2, unphosphorylated (Homo sapiens (Human), UniProt P35968)
Assay: VEGFR ADP GLO Assay
Format: biochemical

Chain of VEGFR2, unphosphorylated (P35968 20-1356): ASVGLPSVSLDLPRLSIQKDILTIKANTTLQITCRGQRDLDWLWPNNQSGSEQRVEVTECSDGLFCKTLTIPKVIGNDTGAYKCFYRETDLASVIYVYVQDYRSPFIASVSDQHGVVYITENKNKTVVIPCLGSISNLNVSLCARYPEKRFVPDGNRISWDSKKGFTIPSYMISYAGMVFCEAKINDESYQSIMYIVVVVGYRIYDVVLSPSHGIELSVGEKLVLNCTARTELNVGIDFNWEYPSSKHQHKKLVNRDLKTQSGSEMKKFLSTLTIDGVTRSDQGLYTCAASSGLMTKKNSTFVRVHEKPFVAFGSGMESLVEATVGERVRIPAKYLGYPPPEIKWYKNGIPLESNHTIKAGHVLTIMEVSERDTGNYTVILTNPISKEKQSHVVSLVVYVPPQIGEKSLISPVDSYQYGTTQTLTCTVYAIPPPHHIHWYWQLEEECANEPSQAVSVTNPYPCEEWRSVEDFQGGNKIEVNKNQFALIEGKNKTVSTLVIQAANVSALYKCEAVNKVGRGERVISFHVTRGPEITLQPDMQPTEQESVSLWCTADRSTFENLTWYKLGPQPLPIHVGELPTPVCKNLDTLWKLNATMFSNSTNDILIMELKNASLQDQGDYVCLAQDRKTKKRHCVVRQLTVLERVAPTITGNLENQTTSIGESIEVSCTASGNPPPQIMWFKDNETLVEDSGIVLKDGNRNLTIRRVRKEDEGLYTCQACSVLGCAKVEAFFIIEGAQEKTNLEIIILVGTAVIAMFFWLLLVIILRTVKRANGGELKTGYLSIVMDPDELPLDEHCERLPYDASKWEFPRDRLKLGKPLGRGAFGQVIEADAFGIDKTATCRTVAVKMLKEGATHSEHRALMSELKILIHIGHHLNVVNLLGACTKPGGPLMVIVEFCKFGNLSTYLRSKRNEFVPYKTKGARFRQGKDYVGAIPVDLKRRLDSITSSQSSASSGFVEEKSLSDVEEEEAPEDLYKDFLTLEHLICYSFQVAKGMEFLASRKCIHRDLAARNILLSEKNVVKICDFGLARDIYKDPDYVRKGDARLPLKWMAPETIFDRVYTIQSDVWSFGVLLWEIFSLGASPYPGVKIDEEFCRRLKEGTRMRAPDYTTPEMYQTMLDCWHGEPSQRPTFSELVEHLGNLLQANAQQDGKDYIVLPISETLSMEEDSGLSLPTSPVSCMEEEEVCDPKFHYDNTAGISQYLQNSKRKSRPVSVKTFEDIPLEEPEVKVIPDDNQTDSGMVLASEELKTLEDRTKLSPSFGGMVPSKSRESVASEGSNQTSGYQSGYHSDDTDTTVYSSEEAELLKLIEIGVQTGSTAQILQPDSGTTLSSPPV

Row | SMILES | IC50 [µM]
1 | Cc1ncc(NC(=O)CCN2CCC3(CC3)C2)cc1NC(=O)c1cnn2cc(-c3cnn(C)c3)sc12 [Example 104, N-(5-(3-(5-azaspiro[2.4]heptan-5-yl)propanamido)-2-methylpyridin-3-yl)-2-(1-methyl-1H-pyrazol-4-yl)pyrazolo[5,1-b]thiazole-7-carboxamide] | > 7.5
2 | Cc1ncc(C(=O)NCCN2CC3CC(C3)C2)cc1NC(=O)c1cnn2cc(-c3cnn(C)c3)sc12 [Example 5, N-(5-((2-(3-azabicyclo[3.1.1]heptan-3-yl)ethyl)carbamoyl)-2-methylpyridin-3-yl)-2-(1-methyl-1H-pyrazol-4-yl)pyrazolo[5,1-b]thiazole-7-carboxamide] | > 7.5
3 | Cc1ncc(C(=O)NCCN2CCC3(CCOC3)C2)cc1NC(=O)c1cnn2cc(-c3cnn(C)c3)sc12 (centres unmarked) [Example 116, N-(5-((2-(2-oxa-7-azaspiro[4.4]nonan-7-yl)ethyl)carbamoyl)-2-methylpyridin-3-yl)-2-(1-methyl-1H-pyrazol-4-yl)pyrazolo[5,1-b]thiazole-7-carboxamide] | > 7.5
4 | Cc1ncc(NC(=O)NCC2CCN(C)CC2)cc1NC(=O)c1cnn2cc(-c3cnn(C)c3)sc12 [Example 107, 2-(1-methyl-1H-pyrazol-4-yl)-N-(2-methyl-5-(3-((1-methylpiperidin-4-yl)methyl)ureido)pyridin-3-yl)pyrazolo[5,1-b]thiazole-7-carboxamide] | > 7.5
5 | Cc1ncc(NC(=O)CCN2CCCC23CC3)cc1NC(=O)c1cnn2cc(-c3cnn(C)c3)sc12 [Example 98] | > 7.5
6 | Cc1ncc(C(=O)NCCN2C3CCC2COC3)cc1NC(=O)c1cnn2cc(-c3cnn(C)c3)sc12 [Example 122, N-(5-((2-(3-oxa-8-azabicyclo[3.2.1]octan-8-yl)ethyl)carbamoyl)-2-methylpyridin-3-yl)-2-(1-methyl-1H-pyrazol-4-yl)pyrazolo[5,1-b]thiazole-7-carboxamide] | > 7.5
7 | Cc1ncc(C(=O)NCCN2CCCC2(C)C)cc1NC(=O)c1cnn2cc(-c3cnn(C4CC4)c3)sc12 [Example 6, 2-(1-cyclopropyl-1H-pyrazol-4-yl)-N-(5-((2-(2,2-dimethylpyrrolidin-1-yl)ethyl)carbamoyl)-2-methylpyridin-3-yl)pyrazolo[5,1-b]thiazole-7-carboxamide] | > 7.5
8 | Cc1ncc(C(=O)NCCN2CC(F)(F)C2)cc1NC(=O)c1cnn2cc(-c3ccncc3)sc12 [Example 152, N-(5-((2-(3,3-difluoroazetidin-1-yl)ethyl)carbamoyl)-2-methylpyridin-3-yl)-2-(pyridin-4-yl)pyrazolo[5,1-b]thiazole-7-carboxamide] | > 7.5
9 | Cc1ncc(NC(=O)CCN2CC(C)(C)C2)cc1NC(=O)c1cnn2cc(-c3cnn(C)c3)sc12 [Example 96, N-(5-(3-(3,3-dimethylazetidin-1-yl)propanamido)-2-methylpyridin-3-yl)-2-(1-methyl-1H-pyrazol-4-yl)pyrazolo[5,1-b]thiazole-7-carboxamide] | > 7.5
10 | Cc1ncc(C(=O)NCCN2CCC3(CC3)C2)cc1NC(=O)c1cnn2cc(-c3cn(C)cn3)sc12 [Example 162, N-(5-((2-(5-azaspiro[2.4]heptan-5-yl)ethyl)carbamoyl)-2-methylpyridin-3-yl)-2-(1-methyl-1H-imidazol-4-yl)pyrazolo[5,1-b]thiazole-7-carboxamide] | > 7.5
11 | Cc1ncc(NC(=O)CCN2CCCC2(C)C)cc1NC(=O)c1cnn2cc(-c3cnn(C)c3)sc12 [Example 10, N-(5-(3-(2,2-dimethylpyrrolidin-1-yl)propanamido)-2-methyl-pyridin-3-yl)-2-(1-methyl-1H-pyrazol-4-yl)pyrazolo[5,1-b]thiazole-7-carboxamide] | > 7.5
12 | Cc1ncc(C(=O)NCCN2CCCC23COC3)cc1NC(=O)c1cnn2cc(-c3c(C)nn(C)c3C)sc12 [Example 179, N-(5-((2-(2-oxa-5-azaspiro[3.4]octan-5-yl)ethyl)carbamoyl)-2-methylpyridin-3-yl)-2-(1,3,5-trimethyl-1H-pyrazol-4-yl)pyrazolo[5,1-b]thiazole-7-carboxamide] | > 7.5
13 | Cc1ncc(C(=O)NCCN2CCCC(F)(F)C2)cc1NC(=O)c1cnn2cc(-c3cnn(C)c3)sc12 [Example 123, N-(5-((2-(3,3-difluoropiperidin-1-yl)ethyl)carbamoyl)-2-methylpyridin-3-yl)-2-(1-methyl-1H-pyrazol-4-yl)pyrazolo[5,1-b]thiazole-7-carboxamide] | > 7.5
14 | Cc1ncc(C(=O)NCCN2CCCC23COC3)cc1NC(=O)c1cnn2cc(-c3cnn(C)c3)sc12 [Example 114, N-(5-((2-(2-oxa-5-azaspiro[3.4]octan-5-yl)ethyl)carbamoyl)-2-methylpyridin-3-yl)-2-(1-methyl-1H-pyrazol-4-yl)pyrazolo[5,1-b]thiazole-7-carboxamide] | > 7.5
15 | Cc1ncc(C(=O)NCCN2CC(C)(C)C2)cc1NC(=O)c1cnn2cc(-c3cccnc3)sc12 [Example 158, N-(5-((2-(3,3-dimethylazetidin-1-yl)ethyl)carbamoyl)-2-methylpyridin-3-yl)-2-(pyridin-3-yl)pyrazolo[5,1-b]thiazole-7-carboxamide] | > 7.5
16 | Cc1ncc(C(=O)NCCN2CCC3(CC3)C2)cc1NC(=O)c1cnn2cc(-c3ccccn3)sc12 [Example 160, N-(5-((2-(5-azaspiro[2.4]heptan-5-yl)ethyl)carbamoyl)-2-methylpyridin-3-yl)-2-(pyridin-2-yl)pyrazolo[5,1-b]thiazole-7-carboxamide] | > 7.5
17 | Cc1ncc(C(=O)NCCN2CC3CCC2CC3)cc1NC(=O)c1cnn2cc(-c3ccc4oc(=O)[nH]c4c3)sc12 [Example 145, N-(5-((2-(2-azabicyclo[2.2.2]octan-2-yl)ethyl)carbamoyl)-2-methylpyridin-3-yl)-2-(2-oxo-2,3-dihydrobenzo[d]oxazol-5-yl)pyrazolo[5,1-b]thiazole-7-carboxamide] | > 0.833
18 | Cc1ncc(C(=O)NCCN2C3CCC2CC3)cc1NC(=O)c1cnn2cc(-c3cnn(C)c3C)sc12 [Example 172, N-(5-((2-(7-azabicyclo[2.2.1]heptan-7-yl)ethyl)carbamoyl)-2-methylpyridin-3-yl)-2-(1,5-dimethyl-1H-pyrazol-4-yl)pyrazolo[5,1-b]thiazole-7-carboxamide] | > 7.5
19 | Cc1ncc(C(=O)NCCN2CC3CCC2CC3)cc1NC(=O)c1cnn2cc(-c3cnn(CS(C)(=O)=O)c3)sc12 [Example 143, N-(5-((2-(2-azabicyclo[2.2.2]octan-2-yl)ethyl)carbamoyl)-2-methylpyridin-3-yl)-2-(1-((methylsulfonyl)methyl)-1H-pyrazol-4-yl)pyrazolo[5,1-b]thiazole-7-carboxamide] | > 7.5
20 | Cc1ncc(C(=O)NCCN2CCCC2(C)C)cc1NC(=O)c1cnn2cc(-c3ccncc3)sc12 [Example 7, N-(5-((2-(2,2-dimethylpyrrolidin-1-yl)ethyl)carbamoyl)-2-methyl-pyridin-3-yl)-2-(pyridin-4-yl)pyrazolo[5,1-b]thiazole-7-carboxamide] | > 7.5
21 | Cc1ncc(C(=O)NCCN2CCC23CCC3)cc1NC(=O)c1cnn2cc(-c3cnn(C)c3C)sc12 [Example 169, N-(5-((2-(1-azaspiro[3.3]heptan-1-yl)ethyl)carbamoyl)-2-methylpyridin-3-yl)-2-(1,5-dimethyl-1H-pyrazol-4-yl)pyrazolo[5,1-b]thiazole-7-carboxamide] | > 7.5
22 | COCCN(CCNC(=O)c1cnc(C)c(NC(=O)c2cnn3cc(-c4cnn(C)c4)sc23)c1)C(C)C [Example 127, N-(5-((2-(isopropyl(2-methoxyethyl)amino)ethyl)carbamoyl)-2-methylpyridin-3-yl)-2-(1-methyl-1H-pyrazol-4-yl)pyrazolo[5,1-b]thiazole-7-carboxamide] | > 7.5
23 | Cc1ncc(C(=O)NCCN2CC(C)(C)C2)cc1NC(=O)c1cnn2cc(-c3ccncc3)sc12 [Example 155, N-(5-((2-(3,3-dimethylazetidin-1-yl)ethyl)carbamoyl)-2-methylpyridin-3-yl)-2-(pyridin-4-yl)pyrazolo[5,1-b]thiazole-7-carboxamide] | > 7.5
24 | COCCn1nc(C)c(-c2cn3ncc(C(=O)Nc4cc(NC(=O)CCN5CCC6(CC6)C5)cnc4C)c3s2)c1C [Example 103, N-(5-(3-(5-azaspiro[2.4]heptan-5-yl)propanamido)-2-methylpyridin-3-yl)-2-(1-(2-methoxyethyl)-3,5-dimethyl-1H-pyrazol-4-yl)pyrazolo[5,1-b]thiazole-7-carboxamide] | > 7.5
25 | Cc1ncc(C(=O)NCCN2CCC(F)(F)CC2)cc1NC(=O)c1cnn2cc(-c3cnn(C)c3)sc12 [Example 119, N-(5-((2-(4,4-difluoropiperidin-1-yl)ethyl)carbamoyl)-2-methylpyridin-3-yl)-2-(1-methyl-1H-pyrazol-4-yl)pyrazolo[5,1-b]thiazole-7-carboxamide] | > 7.5
26 | Cc1ncc(C(=O)NCCN2CC3CCC2CC3)cc1NC(=O)c1cnn2cc(-c3cnn(CC#N)c3)sc12 [Example 151, N-(5-((2-(2-azabicyclo[2.2.2]octan-2-yl)ethyl)carbamoyl)-2-methylpyridin-3-yl)-2-(1-(cyanomethyl)-1H-pyrazol-4-yl)pyrazolo[5,1-b]thiazole-7-carboxamide] | > 7.5
27 | Cc1ncc(NC(=O)CCN2CCC3(CC2)CC3)cc1NC(=O)c1cnn2cc(-c3cnn(C)c3)sc12 [Example 97, N-(5-(3-(6-azaspiro[2.5]octan-6-yl)propanamido)-2-methylpyridin-3-yl)-2-(1-methyl-1H-pyrazol-4-yl)pyrazolo[5,1-b]thiazole-7-carboxamide] | > 7.5
28 | CC(=O)Nc1cncc(-c2cn3ncc(C(=O)Nc4cc(C(=O)NCCN5CC6CCC5CC6)cnc4C)c3s2)c1 [Example 147, N-(5-((2-(2-azabicyclo[2.2.2]octan-2-yl)ethyl)carbamoyl)-2-methylpyridin-3-yl)-2-(5-acetamidopyridin-3-yl)pyrazolo[5,1-b]thiazole-7-carboxamide] | > 7.5
29 | CC(=O)N1CCN(CCNC(=O)c2cnc(C)c(NC(=O)c3cnn4cc(-c5cnn(C)c5)sc34)c2)CC1 [Example 129, N-(5-((2-(4-acetylpiperazin-1-yl)ethyl)carbamoyl)-2-methylpyridin-3-yl)-2-(1-methyl-1H-pyrazol-4-yl)pyrazolo[5,1-b]thiazole-7-carboxamide] | > 7.5
